# Values joined by “and” are separate entries in the source; they are usually repeats but may differ in a detail not shown here. Equal values may be shown once.
# Experiments:
# RAW264.7 [1] = test: Antiinflammatory activity in mouse RAW 264.7 cells assessed as inhibition of LPS-induced nitric oxide production measured after 48 hrs by Griess reagent assay; assay type: functional, cell-based; settings: RAW264.7, 48 h
# [2] = Antioxidant activity assessed as DPPH radical scavenging activity; assay type: functional
# [3] = Antioxidant activity assessed as hydrogen peroxide scavenging activity; assay type: functional
# RAW264.7 [4] = test: Antiinflammatory activity in mouse RAW264.7 cells assessed as reduction in LPS-induced nitric oxide production; assay type: functional, cell-based
# BV-2 = test: Antiinflammatory activity in mouse BV2 cells assessed as reduction in LPS-induced nitric oxide production; assay type: functional, cell-based
# HL-60 = test: Cytotoxicity against human HL-60 cells assessed as reduction in cell viability; assay type: functional, cell-based; settings: Homo sapiens, HL-60; read-out: IC50
compound,measurement,setting,value
C=Cc1c(C)c(O)cc2c1ccc1c(C)c(O)ccc12,IC50,RAW264.7 [1],3.2 µM
COc1cc(O)c(-c2cc3c(cc2O)CCc2cc(OC)cc(O)c2-3)c(CCc2cccc(O)c2)c1,EC50,[2],55.9 µM
COc1cc2cc(O)cc(OC)c2c2c(O)cccc12,IC50,[3],19 µM
same,IC50,[2]; read-out: IC50,6.8 µM
same,IC50,"RAW264.7 [4]; Mus musculus, RAW264.7",24.1 µM
Cc1c(O)ccc2c1CCc1cc(O)cc(CO)c1-2,IC50,"RAW264.7 [4]; Mus musculus, RAW264.7",16 µM
COC(C)c1cc(O)cc2ccc3c(C)c(O)ccc3c12 (stereo not drawn),IC50,"RAW264.7 [4]; Mus musculus, RAW264.7",11.1 µM
same,IC50,RAW264.7 [4]; raw264.7,16.3 µM
Oc1cc2c3c(c1)COc1cc(O)cc(c1-3)CC2,IC50,[3],0.08 µM
same,IC50,[2]; read-out: IC50,6.6 µM
Oc1ccc(/C=C/c2cc(O)cc(O)c2)cc1 [RESVERATROL],EC50,[2],21.2 µM
same,IC50,[2]; read-out: IC50,28.7 µM
C[C@@H]1O[C@@H](OC[C@H]2O[C@@H](Oc3c(-c4ccc(O)c(O)c4)oc4cc(O)cc(O)c4c3=O)[C@H](O)[C@@H](O)[C@@H]2O)[C@H](O)[C@H](O)[C@H]1O [RUTIN],IC50,[2],2.5 µg/mL
COc1ccc2ccc3ccc(O[C@@H]4O[C@H](CO)[C@@H](O)[C@H](O)[C@H]4O)c(O)c3c2c1,IC50,[2]; read-out: IC50,0.2 µM
same,IC50,BV-2,10.6 µg/mL
Cc1c(C)c2c(c(C)c1O)CCC(C)(C(=O)O)O2 (stereo not drawn) [TROLOX],IC50,[2]; read-out: IC50,11.7 µM
OC[C@H]1O[C@@H](O[C@H]2[C@H](O)[C@@H](O)[C@H](Oc3ccc4ccc5ccc(O)cc5c4c3O)O[C@@H]2CO)[C@H](O)[C@@H](O)[C@@H]1O,IC50,BV-2,15.3 µg/mL
COc1cc(O)c2c(c1-c1c(OC)cc(O)c3c1ccc1cc(O)ccc13)CCc1cc(O)ccc1-2,IC50,HL-60,7.3 µg/mL
same,IC50,[2],15.1 µg/mL
COc1cc(O)c2c(c1)CCc1cc(O)cc(O)c1-2,IC50,[2]; read-out: IC50,10.2 µM
COc1cc(O)c2c(ccc3cc(O)ccc32)c1-c1c(OC)cc(O)c2c1ccc1cc(O)ccc12,IC50,[2],9.4 µg/mL
COc1cc(O)c2c(c1)CCc1cc(O)c(-c3c(OC)cc(O)c4c3ccc3cc(O)ccc34)cc1-2,IC50,[2],12.9 µg/mL
COc1cc(O)c2c(c1)CCc1cccc(O)c1-2,EC50,[2],10 µM
same,IC50,[2]; read-out: IC50,21.4 µM
COc1ccc(O)c(C(C)(C)C)c1.COc1ccc(O)cc1C(C)(C)C [BUTYLATED HYDROXYANISOLE],IC50,[2],9.3 µg/mL
C=Cc1cc(O)cc2c1-c1cc(-c3c(O)cc(C=C)c4c3ccc3c(C)c(O)ccc34)c(O)c(C)c1CC2,IC50,"RAW264.7 [4]; Mus musculus, RAW264.7",7.4 µM
COc1cc(O)cc2ccc3cccc(O)c3c12 [MOSCATIN],IC50,[2]; read-out: IC50,9.2 µM
N=C(N)NN [PIMAGEDINE],IC50,[2]; read-out: IC50,21.7 µM
CNC(=N)NCCC[C@H](N)C(=O)O [TILARGININE],IC50,BV-2,16.3 µM
COc1cc2c(c(OC)c1O)-c1ccc(O)cc1CC2 [FLAVANTHRIDIN],IC50,[3],2 µM
COc1c(O)cc2ccc3c(OC)c(O)ccc3c2c1OC,IC50,[2]; read-out: IC50,12.9 µM
COc1cc(O)cc2c1-c1ccc(O)cc1CC2,IC50,[3],0.08 µM
same,IC50,[2]; read-out: IC50,16.7 µM and 8.5 µM
COc1cc(O)c2c(c1)CCc1cc(O)c(-c3c(OC)cc(O)c4c3CCc3cc(O)ccc3-4)cc1-2,EC50,[2],26.7 µM
COc1cc(O)c2c(c1)CCc1c-2ccc(OC)c1O,EC50,[2],27.7 µM
same,IC50,[2]; read-out: IC50,27.7 µM
COc1c(O)cc2c(c1OC)-c1ccc(O)cc1CC2 [ERIANTHRIDIN],IC50,[2]; read-out: IC50,14.9 µM
Oc1ccc2c(c1)CCc1cc(O)cc(O)c1-2,IC50,[2]; read-out: IC50,16.2 µM
COc1cc(O)c2c(c1)CCc1cc(O)c(-c3c(/C=C/c4cccc(O)c4)cc(O)cc3OC)cc1-2,EC50,[2],47.3 µM
O=c1c(O)c(-c2ccc(O)c(O)c2)oc2cc(O)cc(O)c12 [QUERCETIN],IC50,"RAW264.7 [4]; Mus musculus, RAW264.7",6.6 µM
COc1c(O)cc2c3c1COc1cc(O)c(Cc4ccc(O)cc4)c(c1-3)CC2,IC50,"RAW264.7 [4]; Mus musculus, RAW264.7",20.8 µM
COc1cc(O)c2c(c1-c1c(OC)cc(O)c3c1CCc1cc(O)ccc1-3)CCc1cc(O)ccc1-2,EC50,[2],7.7 µM
COc1cc(O)c2c(c1)CCc1cc(O)ccc1-2 [LUSIANTHRIDIN],EC50,[2],22.3 µM
same,IC50,[2]; read-out: IC50,62.2 µM and 22.3 µM
same,IC50,RAW264.7 [1],4.6 µM
COc1cc(O)c2c(c1Cc1ccc(O)cc1)CCc1cc(O)ccc1-2,IC50,[2],12.2 µg/mL
C=Cc1ccc(CO)c2c1-c1ccc(O)c(C)c1CC2,IC50,"RAW264.7 [4]; Mus musculus, RAW264.7",14.4 µM
COc1cc(O)cc2cc(O)c3cccc(OC)c3c12,IC50,[2]; read-out: IC50,59.8 µM
